Experimental data published in US10144715B2, “Piperazine derivatives as liver X receptor modulators” (priority 2014, dated 2018).
Like-named read-outs stand apart in the source and are kept apart here.

Legend:
[1] = molecular target: Gal4 DNA binding domain fused to the LBD of LXRα in HEK293 cells (Homo sapiens (Human), UniProt Q13133); test: LXR luciferase transcriptional reporter gene assay, agonist mode, LXRα; type: cell-based; conditions: for EC50: read-out: Cell LXRα EC50
[2] = molecular target: Gal4 DNA binding domain fused to the LBD of LXRβ in HEK293 cells (Homo sapiens (Human), UniProt P55055); test: cell-based
LXR β LBD protein = LXR β LBD protein (Homo sapiens (Human), UniProt P55055); test: biochemical; type: binding
LXR α LBD protein = LXR α LBD protein (Homo sapiens (Human), UniProt Q13133); test: LXR α radioligand binding assay (SPA, competition with [3H]TO901317); conditions: read-out: LXRα Binding Ki
[3] = agonist mode, read-out: Cell LXRβ EC50
[4] = Biological Test Example 2, agonist mode
[5] = Biological Test Example 2, agonist mode, read-out: Cell LXRβ EC50
[6] = Biological Test Example 1, read-out: LXRβ Binding Ki

Sequence of Gal4 DNA binding domain fused to the LBD of LXRα in HEK293 cells (Q13133 209-447): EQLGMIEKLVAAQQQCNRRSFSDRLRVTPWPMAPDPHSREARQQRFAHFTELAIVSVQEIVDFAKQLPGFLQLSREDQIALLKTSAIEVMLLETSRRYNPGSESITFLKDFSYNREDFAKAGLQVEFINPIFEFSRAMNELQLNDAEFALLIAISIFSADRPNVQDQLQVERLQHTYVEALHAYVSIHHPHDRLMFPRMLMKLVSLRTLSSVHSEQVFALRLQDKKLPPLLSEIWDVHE
Sequence of LXR β LBD protein (P55055 222-460 limits assumed): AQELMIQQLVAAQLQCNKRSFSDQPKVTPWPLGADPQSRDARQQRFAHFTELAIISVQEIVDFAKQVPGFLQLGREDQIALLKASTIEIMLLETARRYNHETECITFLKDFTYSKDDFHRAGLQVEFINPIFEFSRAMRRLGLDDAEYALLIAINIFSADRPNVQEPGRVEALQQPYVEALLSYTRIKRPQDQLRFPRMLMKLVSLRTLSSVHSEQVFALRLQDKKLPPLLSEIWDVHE
Sequence of Gal4 DNA binding domain fused to the LBD of LXRβ in HEK293 cells (P55055 222-460 limits assumed): as above
Sequence of LXR α LBD protein (Q13133 209-447): as the sequence (Q13133 209-447) above

Row | EC50 [2] | Cell LXRβ efficacy ([2]; agonist mode) | Ki (LXR β LBD protein; read-out: LXRβ Binding Ki) | SMILES | Cell LXRα efficacy [1] | EC50 [1] | Cell LXRβ efficacy [2, 4] | further results
1 | 2480 nM | 2479 (33) % |  | CC(C)[C@@H]1CN(c2ccc(F)c(S(C)(=O)=O)c2)CCN1c1nccc(CO)n1 [11-15, (R)-(2-(4-(4-fluoro-3-(methylsulfonyl)phenyl)-2-isopropylpiperazin-1-yl)pyrimidin-4-yl)methanol] |  |  |  | Ki (LXR β LBD protein): 930 nM
2 | 467 nM | 467 (76) % | 95 nM | CC(C)[C@@H]1CN(c2ccc(CO)c(S(C)(=O)=O)c2)CCN1c1nc(C(F)(F)F)c(CO)o1 [11-16, (R)-(2-(4-(4-(hydroxymethyl)-3-(methylsulfonyl)phenyl)-2-isopropylpiperazin-1-yl)-4-(trifluoromethyl)oxazol-5-yl)methanol] |  |  |  | 
3 | 292 nM | 292 (89) % | 53 nM | CC(C)[C@@H]1CN(c2ccc(CO)c(S(C)(=O)=O)c2)CCN1c1nc(C(F)(F)F)c(CO)s1 [11-17, (R)-(2-(4-(4-(hydroxymethyl)-3-(methylsulfonyl)phenyl)-2-isopropylpiperazin-1-yl)-4-(trifluoromethyl)thiazol-5-yl)methanol] |  |  |  | 
4 | 706 nM | 706 (43) % | 73 nM | CC(C)[C@@H]1CN(c2cccc(S(C)(=O)=O)c2)CCN1c1ccc(C(C)(F)F)cn1 [20-2, (R)-1-(5-(1,1-difluoroethyl)pyridin-2-yl)-2-isopropyl-4-(3-(methylsulfonyl)phenyl)piperazine] |  |  |  | 
5 | 443 nM | 443 (48) % | 52 nM | CC(C)[C@@H]1CN(c2ccc(F)c(S(C)(=O)=O)c2)CCN1c1ccc(C(C)(O)C(F)(F)F)cn1 (stereo partly drawn) [20-3, 1,1,1-trifluoro-2-(6-((R)-4-(4-fluoro-3-(methylsulfonyl)phenyl)-2-isopropylpiperazin-1-yl)pyridin-3-yl)propan-2-ol] |  |  |  | 
6 | 2080 nM |  |  | CC1(C)CCC(O)(CN2CCN(c3cccc(S(C)(=O)=O)c3)C[C@H]2c2ccccc2)CC1 [53-2, (R)-4,4-dimethyl-1-((4-(3-(methylsulfonyl)phenyl)-2-phenylpiperazin-1-yl)methyl)cyclohexan-1-ol] |  |  | 2082 (56) % | Ki (LXR β LBD protein; [6]): 609 nM

Continued, compound first:

Row | SMILES | EC50 [2] | Cell LXRβ efficacy ([2]; agonist mode) | Ki (LXR β LBD protein; read-out: LXRβ Binding Ki) | Cell LXRα efficacy [1] | EC50 [1] | Cell LXRβ efficacy [2, 4] | further results
7 | C[C@H](c1ccc(C(F)(F)F)cc1)N1CCN(c2cccc(S(C)(=O)=O)c2)C[C@@H]1c1ccccc1 (single isomer, unassigned) [46-18] | 1430 nM |  |  | 4598 (45) % | 4600 nM |  | Cell LXRβ efficacy [2]: 1434 (31) %; Ki (LXR β LBD protein): 35 nM
8 | CC(F)(F)[C@H]1CC[C@@H](CN2CCN(c3cccc(S(C)(=O)=O)c3)C[C@@H]2c2ccccc2)CC1 (single isomer, unassigned) [48-28] |  | 12% | 1340 nM |  | > 20000 nM |  | EC50 [2, 3]: 6480 nM
9 | CC(F)(F)[C@H]1CC[C@@H](CN2CCN(c3cccc(S(C)(=O)=O)c3)C[C@H]2c2ccccc2)CC1 (single isomer, unassigned) [48-29] |  | 20% | 378 nM | 6290 (43) % | 6290 nM |  | EC50 [2, 3]: 1500 nM
10 | CS(=O)(=O)c1cccc(N2CCN(C[C@H]3CC[C@H](C(F)(F)F)CC3)[C@@H](c3ccccc3Cl)C2)c1 (single isomer, unassigned) [48-46] |  |  |  | 1908 (35) % | 1910 nM | 35% | EC50 [2, 5]: 910 nM; Ki (LXR β LBD protein; [6]): 27 nM
11 | CS(=O)(=O)c1cccc(N2CCN(C[C@H]3CC[C@@]4(CC3)CC4(F)F)[C@H](c3ccccc3)C2)c1 (single isomer, unassigned) [48-70] |  |  |  | 9091 (26) % | 9090 nM | 58% | EC50 [2, 5]: 3730 nM; Ki (LXR β LBD protein; [6]): 750 nM
12 | CS(=O)(=O)c1cccc(N2CCN(C[C@@H]3CC[C@@H](C(F)(F)F)OC3)[C@@H](c3ccc(F)cc3)C2)c1 (single isomer, unassigned) [49-11] | 887 nM |  |  | 2460 (42) % | 2460 nM | 887 (21) % | Ki (LXR β LBD protein): 214 nM
13 | CC(C)[C@@H]1CN(c2ccc(F)c(S(C)(=O)=O)c2)CCN1c1ncc(C#N)c(C(F)(F)F)n1 [7-21, (R)-2-(4-(4-fluoro-3-(methylsulfonyl)phenyl)-2-isopropylpiperazin-1-yl)-4-(trifluoromethyl)pyrimidine-5-carbonitrile] | 152 nM | 152 (65) % | 9 nM | 549 (86) % |  |  | EC50 ([1]; agonist mode): 549 nM
14 | CCOC(=O)c1cnc(N2CCN(c3ccc(F)c(S(C)(=O)=O)c3)CC2CC(F)(F)F)nc1C (stereo not drawn) [7-22, ethyl 2-(4-(4-fluoro-3-(methylsulfonyl)phenyl)-2-(2,2,2-trifluoroethyl)piperazin-1-yl)-4-methylpyrimidine-5-carboxylate] | 191 nM | 191 (31) % | 17 nM | 1038 (43) % |  |  | EC50 ([1]; agonist mode): 1040 nM
15 | CCOC(=O)c1cnc(N2CCN(c3ccc(F)c(S(C)(=O)=O)c3)C[C@H]2C2CC2)nc1C(F)(F)F [9-4, ethyl (R)-2-(2-cyclopropyl-4-(4-fluoro-3-(methylsulfonyl)phenyl)piperazin-1-yl)-4-(trifluoromethyl)pyrimidine-5-carboxylate] | 318 nM | 318 (27) % | 13 nM | 1415 (37) % |  |  | EC50 ([1]; agonist mode): 1410 nM
16 | CC(C)[C@@H]1CN(c2ccc(F)c(S(C)(=O)=O)c2)CCN1c1nc2cccnc2s1 [Cpd No 7-57, (R)-2-(4-(4-fluoro-3-(methylsulfonyl)phenyl)-2-isopropylpiperazin-1-yl)thiazolo[5,4-b]pyridine] | 44 nM |  | 12 nM |  |  |  | Cell LXRβ efficacy [2]: 44 (90) %
17 | CC(C)[C@@H]1CN(c2ccc(CO)c(S(C)(=O)=O)c2)CCN1c1ccc(C(F)(F)F)nc1 [Cpd No 20-4, (R)-(4-(3-isopropyl-4-(6-(trifluoromethyl)pyridin-3-yl)piperazin-1-yl)-2-(methylsulfonyl)phenyl)methanol] | 28 nM | 28 (105) % | 20 nM |  |  |  | 
18 | Cc1nc(N2CCN(c3cccc(S(C)(=O)=O)c3)C[C@H]2C(C)C)ccc1C(F)(F)F [Cpd No 37-2, (R)-2-isopropyl-1-(6-methyl-5-(trifluoromethyl)pyridin-2-yl)-4-(3-(methylsulfonyl)phenyl)piperazine] | 49 nM |  | 2 nM |  |  |  | Cell LXRβ efficacy [2]: 49 (98) %
19 | CC(C)[C@H]1CN(c2ccc(C#N)c(S(C)(=O)=O)c2)CCN1C[C@H]1CC[C@@H](C(F)(F)F)CC1 [Cpd No 50-1, 4-((S)-3-isopropyl-4-(((1s,4R)-4-(trifluoromethyl)cyclohexyl)methyl)piperazin-1-yl)-2-(methylsulfonyl)benzonitrile] |  |  |  | 181 (100) % | 181 nM | 88% | Ki (LXR α LBD protein): 107 nM
20 | CC1(C)CCC(O)(CN2CCN(c3cccc(S(C)(=O)=O)c3)C[C@@H]2c2ccccc2)CC1 [Cpd No 53-1, (S)-4,4-dimethyl-1-((4-(3-(methylsulfonyl)phenyl)-2-phenylpiperazin-1-yl)methyl)cyclohexan-1-ol] | 1030 nM |  |  |  |  | 1030 (53) % | Ki (LXR β LBD protein; [6]): 121 nM
